Measurements from PubChem BioAssay (NCI).
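Grown in 96-well plates, cells were treated for 48 hours with each compound at five concentrations. Insufficient inhibition: endpoint recorded as highest concentration tested. At the GI50, growth is halved. TGI: total growth inhibition.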

Experiments:
Assay in all cases: inhibition of tumour cell growth, NCI panel, 48 h
[1] = test system: BT-549 breast
[2] = test system: OVCAR-3 ovarian
[3] = test system: HOP-62 NSCLC
[4] = test system: U251 CNS
[5] = test system: HS 578T breast
[6] = test system: NCI-H23 lung
[7] = test system: SNB-75 CNS
[8] = test system: SF-295 CNS
[9] = test system: TK-10 renal
[10] = test system: NCI-H522 lung
[11] = test system: SK-MEL-5 melanoma
[12] = test system: KM12 colon
[13] = test system: HOP-92 NSCLC
[14] = test system: HL-60(TB) leukemia
[15] = test system: SR leukemia
[16] = test system: CCRF-CEM leukemia
[17] = test system: RPMI-8226 leukemia
[18] = test system: SNB-19 CNS
[19] = test system: MOLT-4 leukemia
[20] = test system: OVCAR-8 ovarian
[21] = test system: IGROV1 ovarian
[22] = test system: A549 NSCLC
[23] = test system: OVCAR-5 ovarian
[24] = test system: UACC-257 melanoma
[25] = test system: NCI-H460 lung
[26] = test system: PC-3 prostate
[27] = test system: EKVX NSCLC
[28] = test system: SK-MEL-28 melanoma
[29] = test system: NCI/ADR-RES ovarian
[30] = test system: UACC-62 melanoma
[31] = test system: COLO 205 colon
[32] = test system: SF-539 CNS
[33] = test system: HT29 colon
[34] = test system: CAKI-1 renal
[35] = test system: UO-31 renal
[36] = test system: MDA-MB-231 breast
[37] = test system: SF-268 CNS
[38] = test system: SN12C renal
[39] = test system: HCT-116 colon
[40] = test system: MCF7 breast
[41] = test system: OVCAR-4 ovarian
[42] = test system: 786-0 renal
[43] = test system: SW-620 colon
[44] = test system: SK-OV-3 ovarian
[45] = test system: HCC-2998 colon
[46] = test system: SK-MEL-2 melanoma
[47] = test system: LOX IMVI melanoma
[48] = test system: A498 renal
[49] = test system: HCT-15 colon
[50] = test system: NCI-H226 lung
[51] = test system: K-562 leukemia
[52] = test system: ACHN renal
[53] = test system: DU-145 prostate

For `COc1ccc2c(c1)C=CC(C#N)N2C(=O)c1ccccc1` (stereo not drawn), the TGI [1] was > 67500 nM, the GI50 [2] was < 10 nM and the GI50 [3] was < 10 nM. The TGI [3] was > 100000 nM, the GI50 [4] was < 10 nM and the TGI [4] was > 100000 nM. The GI50 [5] was < 10 nM, the TGI [5] was > 100000 nM and the GI50 [6] was < 10 nM. The TGI [6] was > 100000 nM, the GI50 [7] was < 10 nM and the TGI [7] was > 100000 nM. The GI50 [8] was < 10 nM, the TGI [8] was > 100000 nM and the GI50 [9] was 33700 nM. The TGI [9] was > 100000 nM, the GI50 [10] was < 10 nM and the TGI [10] was 188 nM. The GI50 [11] was < 10 nM, the TGI [11] was 4680 nM and the GI50 [12] was < 10 nM. The TGI [12] was > 100000 nM, the TGI [13] was 45900 nM and the GI50 [14] was < 10 nM. The GI50 [15] was < 10 nM, the TGI [15] was > 100000 nM and the GI50 [16] was < 10 nM. The TGI [16] was > 100000 nM, the GI50 [17] was < 10 nM and the TGI [17] was > 100000 nM. For the same compound, the GI50 [18] was < 10 nM, the TGI [18] was > 100000 nM and the GI50 [19] was < 10 nM. The TGI [19] was > 100000 nM, the GI50 [20] was < 10 nM and the TGI [20] was > 100000 nM. The TGI [21] was > 100000 nM, the GI50 [22] was < 10 nM and the TGI [22] was > 100000 nM. The TGI [23] was > 100000 nM, the GI50 [24] was 45200 nM and the TGI [24] was > 100000 nM. The GI50 [25] was < 10 nM, the TGI [25] was 36700 nM and the GI50 [26] was < 10 nM. The TGI [26] was > 100000 nM, the GI50 [27] was < 10 nM and the TGI [27] was > 100000 nM. For the same compound, the TGI [28] was > 100000 nM, the GI50 [29] was < 46.4 nM and the GI50 [30] was < 10 nM. For the same compound, the TGI [30] was > 100000 nM, the GI50 [31] was < 10 nM and the TGI [31] was < 48 nM. The GI50 [32] was < 10 nM, the TGI [32] was 23.8 nM and the GI50 [33] was < 10 nM. For the same compound, the TGI [33] was > 42100 nM, the GI50 [34] was < 10 nM and the TGI [34] was > 100000 nM. For the same compound, the GI50 [35] was < 10 nM, the TGI [35] was > 100000 nM and the GI50 [36] was < 10 nM. For the same compound, the TGI [36] was 3140 nM, the GI50 [37] was 488 nM and the TGI [37] was > 100000 nM. The GI50 [38] was < 11.9 nM, the TGI [38] was > 100000 nM and the GI50 [39] was < 10 nM. For the same compound, the TGI [39] was > 100000 nM, the GI50 [40] was < 10 nM and the TGI [40] was > 100000 nM. The GI50 [41] was 28.3 nM, the TGI [41] was > 100000 nM and the GI50 [42] was < 10 nM. The TGI [42] was > 100000 nM, the GI50 [43] was < 10 nM and the TGI [43] was > 100000 nM. For the same compound, the GI50 [44] was < 10 nM, the TGI [44] was > 100000 nM and the GI50 [45] was 12.9 nM. For the same compound, the TGI [45] was > 100000 nM, the GI50 [46] was < 10 nM and the TGI [46] was > 100000 nM. For the same compound, the GI50 [47] was < 10 nM, the TGI [47] was > 100000 nM and the GI50 [48] was < 10 nM. The TGI [48] was 82.5 nM, the GI50 [49] was < 10 nM and the TGI [49] was > 100000 nM. For the same compound, the GI50 [50] was 4160 nM, the TGI [50] was > 100000 nM and the GI50 [51] was < 10 nM. For the same compound, the TGI [51] was > 100000 nM, the GI50 [52] was 41.1 nM and the TGI [52] was > 100000 nM. The GI50 [53] was < 10 nM and the TGI [53] was > 100000 nM.
